# Tested on: Oxidoreduktase aus Metschnikowia zobellii
# Experiment: Substrate spectrum (relative enzyme activity, standard assay of Example 5.1)
# Type: biochemical
# Conditions: not given
row,SMILES,Relative Aktivität %
1,"O=C(CCl)CCCl [1,4-Dichlor-butan-2-on]",27%
2,CC(=O)Cc1ccccc1 [1-Phenyl-2-propanon],15%
3,O=C(CCl)c1cccc(Cl)c1 [2-chlor-1-(3-chlor-pheny)-ethan-1-on],5%
4,CCOC(=O)CC(=O)CCl [4-Chloracetessigsäureethylester],100%
5,CCC(C)=O [Butan-2-on],0%
6,O=C1CCCCC1 [Cyclohexanon],3%

# Same assay, conditions: activity with 2-Oxo-4-phenyl-buttersäureethylester set to 100%; NADPH; 25 °C
row,SMILES,Relative Aktivität %
1,CC1CCCCC1=O (stereo not shown) [2-Methylcyclohexanon],8%
2,CCOC(=O)C1CCCCC1=O (stereo not shown) [2-Oxo-cyclohexan-carbonsäure-ethylester],20%
3,CCOC(=O)C1CCCC1=O (stereo not shown) [2-Oxo-cyclopentan carbonsäure-ethylester],8%
4,CC1CCCC(=O)C1 (stereo not shown) [3-Methylcyclohexanon],8%
5,"COC(=O)CCCCC(=O)CC(=O)OC [3-Oxo-1,8-octandisäure-dimethylester]",35%
6,CCOC(=O)CCCCC(=O)CCCl [8-Chlor-6-oxo-octansäure-ethylester],50%
7,CCOC(=O)C(=O)c1ccccc1Cl [(2-chlorphenyl)-oxo-essigsäure ethylester],50%
8,CC(=O)c1ccccc1 [Acetophenon],0%
9,CCCCCCCC(=O)c1ccccc1 [Caprylophenon],0%
10,CCOC(=O)C(=O)CCc1ccccc1 [Ethyl-2-oxo-4-phenyl-buttersäure],100%
11,CCCC(=O)C(=O)OCC [Ethyl-2-oxovaleriansäure],100%
12,CCOC(=O)C(=O)c1ccccc1 [Ethylphenylglyoxylat],50%

# Tested on: rekombinante Oxidoreduktase aus Metschnikowia zobellii
# Experiment: not given
# Type: biochemical
# Conditions: not given
row,SMILES,des eingesetzten Substrats reduziert
1,CCOC(=O)CCCCC(=O)CCCl [8-Chlor-6-oxo-octansäure-ethylester],55%
2,CCOC(=O)C(=O)CCc1ccccc1 [Ethyl-2-oxo-4-phenyl-buttersäure],92%
3,CCOC(=O)C(=O)c1ccccc1 [Ethylphenylglyoxylat],50%

# Same assay, conditions: Nach 48 h; 25 °C; two-phase system
row,SMILES,des eingesetzten Substrats reduziert
1,O=C(CCl)c1ccccc1 [2-Chlor-1-phenyl-ethan-1-on],75%

# — patent EP1685248B1, “OXIDOREDUCTASE FROM METSCHNIKOWIA ZOBELLII” (IEP GmbH, priority 2003, dated 2005)
